Data set [1] relates to influenza A/Port Chalmers/l/73 (H3N2) virus. The data set is described as follows: Diffusion test (plaque inhibition zone). It is filed as cell-based. Conditions: diameter of plaque-free zone, 0.02 ml of 1 mg/ml solution in 6 mm well, infected MDCK cell monolayers; for zone of inhibition at 1000 µg/mL: Influenza A virus, H3N2, read-out: Active Zone. On the procedure:
Diffusion Test. 10 mg/ml solutions of the compounds in water were diluted to a concentration of 1 mg/ml with Eagle's minimum essential medium and 0.02 ml introduced into wells 6mm in diameter cut into an agar layer above influenza A/Port Chalmers/l/73 (H3N2) virus infected MDCK cell monolayers. An infection level giving an even distribution of subconfluent plaques was used. The diameters of zones around the wells free from virus induced plaques (inhibition zones) and diameters of zones in which cytotoxicity was apparent are reported.

Data set [2] relates to influenza A/Port Chalmers/1/73 (H3N2) virus. Description: Plaque reduction assay. Type of data set: cell-based. Conditions: MDCK cells; for inhibition at 1.3 µM / inhibition at 4.1 µM / inhibition at 13 µM / inhibition at 41 µM / inhibition at 130 µM / inhibition at 410 µM: Influenza A virus, H3N2, read-out: % Plaque Reduction at Concentration Given. An excerpt: More accurate quantitation of antiviral activity was achieved by incorporated of concentrations of the test compound varying from 1.3 x 10^-6M to 4.1 x 10^-4M into the agar overlay above the influenza A/Port Chalmers/1/73 (H3N2) virus infected MDCK cell monolayers. The % reduction in the number of virus induced plaques at each compound concentration is given below.

Data set [3] deals with MDCK cell monolayers. Particulars: diameter of zone with apparent cytotoxicity; 0.02 ml of 1 mg/ml solution in 6 mm well.

With “1-[β-D-(5'-succinyl-2',3'-carbonyl)ribofuranosyl]-3-carbamoyl-1,2,4-triazole amantadine salt [Compound 6]”, in data set [1], the “Active Zone” value is 55 mm. The “% Plaque Reduction at Concentration Given” value in data set [2] (0.13 x 10^-5 M in agar overlay, 1.3 µM) is listed as 44%; in data set [2] (0.41 x 10^-5 M in agar overlay, 4.1 µM), 63%; in data set [2] (1.3 x 10^-5 M in agar overlay, 13 µM), 89%; in data set [2] (4.1 x 10^-5 M in agar overlay, 41 µM) it was 100%; in data set [2] (13 x 10^-5 M in agar overlay, 130 µM) it was 100%; in data set [2] (41 x 10^-5 M in agar overlay, 410 µM), 100%. In addition, in data set [3], the “Toxic Zone” value turned out to be 0 mm.

Turning to `NC(=O)c1ncn([C@@H]2O[C@H](CO)[C@@H](O)[C@H]2O)n1` [Compound 1, 1-β-D-ribofuranosyl-3-carbamoyl-1,2,4-triazole, reference compound], the zone of inhibition at 1000 µg/mL in data set [1] is 28 mm. Further, the inhibition at 1.3 µM in data set [2] (0.13 x 10^-5 M in agar overlay) worked out at 0%. Also, in data set [2] (0.41 x 10^-5 M in agar overlay), the inhibition at 4.1 µM was 43%. The inhibition at 13 µM in data set [2] (1.3 x 10^-5 M in agar overlay) is 94%. Besides, in data set [2] (4.1 x 10^-5 M in agar overlay), the inhibition at 41 µM was 100%. In addition, in data set [2] (13 x 10^-5 M in agar overlay), the inhibition at 130 µM is 100%. The inhibition at 410 µM in data set [2] (41 x 10^-5 M in agar overlay) is 100%. Also, the “Toxic Zone” value in data set [3] is given as 0 mm.

Turning to `NC(=O)c1ncn([C@@H]2O[C@H](COC(=O)CCC(=O)O)[C@H]3OC(=O)O[C@H]32)n1` [Compound 5, 1-[β-D-(5'-succinyl-2',3'-carbonyl)ribofuranosyl]-3-carbamoyl-1,2,4,-triazole], the zone of inhibition at 1000 µg/mL in data set [1] stood at 17 mm. Further, in data set [2] (0.13 x 10^-5 M in agar overlay), the inhibition at 1.3 µM amounted to 0%. Moreover, the inhibition at 4.1 µM in data set [2] (0.41 x 10^-5 M in agar overlay) turned out to be 0%. Also, the inhibition at 13 µM in data set [2] (1.3 x 10^-5 M in agar overlay) was 0%. In addition, the inhibition at 41 µM in data set [2] (4.1 x 10^-5 M in agar overlay) was 0%. Besides, the inhibition at 130 µM in data set [2] (13 x 10^-5 M in agar overlay) came out at 0%. Further, the inhibition at 410 µM in data set [2] (41 x 10^-5 M in agar overlay) turned out to be 0%. Also, in data set [3], the “Toxic Zone” value was 0 mm.

Values taken from patent publication EP0038629A1, “Virazole derivatives, process for their preparation and use as antiviral agents” (priority 1980, dated 1981).
